We go through 10 compounds from US4808612A, “2-Arylbenzo(b)(1,6)naphthyridines as inhibitors of interleukin 1” (American Home Products Corporation, priority 1987, dated 1989).

The inhibition is the drop in the measured response relative to a control, in per cent.

The subject of the experiment is IL 1-induced release of neutral protease from rabbit articular chondrocytes. The experiment in a line: Inhibition of the IL 1-induced release of neutral protease from rabbit articular chondrocytes (azocoll neutral protease assay). Conditions: Oryctolagus cuniculus, Chondrocyte, purified human IL 1, 24 h after IL 1 stimulation, read-out: % Inhibition (S.D). The format is cell-based. On the procedure: The ability of the compounds of the inventions to inhibit interleukin 1 is measured by the ability of the test compounds to inhibit the IL 1-induced release of neutral protease from rabbit articular chondrocytes.
This assay is carried out as follows:
Isolation of rabbit chondrocytes:
Male New Zealand White rabbits are anesthetized with 50 mg/kg of ketamine (i.m.) and killed by an intracardiac injection of 3 mls. of Nembutal. The knee joints of both legs are resected and the articular surfaces are exposed. Cartilage slices are obtained using a scalpel and are placed in a tissue culture dish (100 mm diameter) containing 10 mls of Hank's balanced salt solution (HBSS). The chondrocytes within the cartilage slices are then liberated by a series of enzyme digestions. The slices are incubated for 10 min. at 37° C. in 0.05% hyaluronidase (Sigma H-3884), rinsed with HBSS and incubated with 0.2% trypsin (Sigma T-2395) for 10 min. at 37° C. The slices are rinsed again and incubated for 10 mins. at 37° C. with 1.2% collagenase (Sigma C-5138). The slices are then rinsed again with HBSS and resuspended in 10 ml of Ham's F-12 medium containing 10% fetal bovine calf cerum (FCS) and 0.2% collagenase and incubated overnight at 37° C. in a 5% CO2 incubator. The next day, the medium containing the digested cartilage fragments and liberated chondrocytes is transferred to a 15 ml centrifuge tube and the cells are collected by centrifugation and washed twice and resuspended in Ham's F-12 medium. The cells are then plated into 24-well tissue culture plates (2×10^5 cells/well) and incubated at 37° C. until confluent (usually 4-6 days).
Stimulation of chondrocytes and drug treatment:
The confluent chondrocytes are rinsed twice with serum-free Ham's F-12 medium and 1 ml is added to each well. Fifty μl of purified human IL 1 (100 Units/ml; Genzyme Corporation, Boston, MA) is then added to stimulate these cells to secrete neutral protease. To measure drug effects, the cells are treated with test compound 10 min. prior to addition of IL 1. The standard screening dose is 10 μM. Twenty-four hours after IL 1 stimulation, supernatant fluids are collected and assayed for neutral protease activity.
The neutral protease activity of chondrocyte supernatant fluids is determined by their ability to degrade an insoluble protease substrate, azocoll (Sigma). Supernatants are treated for 10 min. at room temperature with 350 μM p-aminophenylmurcuric acetate to activate the latent enzyme. Three hundred μl of supernatant is then mixed with 500 μl of a 20 mg/ml suspension of azocoll and incubated at 37° C. for 18-24 hrs. with gentle rocking. The mixtures are centrifuged and the amount of substrate hydrolyzed is determined by measuring the absorbance of the supernatant at 520 nm.
Drug effects are calculated as the % change in enzyme activity (absorbance)by supernatants from drug-treated chondrocytes relative to enzyme activity of supernatants from vehicle-treated chondrocytes as follows: [formula]

On to `N#Cc1ccc(N2CCc3nc4cc(Cl)ccc4c(Cl)c3C2)cc1` [Example 1, 4-(7,10-Dichloro-3,4-dihydrobenzo[b][1,6]naphthyridin-2(1H)-yl)benzonitrile], for which the inhibition at 10 µM was found to be 22 ± 1%.
Consider `CCOC(=O)c1ccc(N2CCc3nc4cc(Cl)ccc4c(Cl)c3C2)cc1` [Example 2, 4-(7,10-Dichloro-3,4-dihydrobenzo[b][1,6]naphthyridin-2(1H)-yl)benzoic acid ethyl ester], for which the inhibition at 10 µM was found to be 35 ± 16%.
For the compound `CS(=O)(=O)c1ccc(N2CCc3nc4cc(Cl)ccc4c(Cl)c3C2)cc1` [Example 3, 7,10-Dichloro-1,2,3,4-tetrahydro-2-(4-methylsulfonyl)phenylbenzo[b][1,6]naphthyridine], the inhibition at 0.1 µM was 69 ± 1%, the inhibition at 1 µM came to 66 ± 1% and the inhibition at 10 µM is 62 ± 2%.
`Fc1ccc(N2CCc3nc4cc(Cl)ccc4c(Cl)c3C2)cc1` [Example 4, 7,10-Dichloro-2-(4-fluorophenyl)-1,2,3,4-tetrahydrobenz[b][1,6]naphthyridine]: the inhibition at 1 µM turned out to be 9 ± 20% and the inhibition at 10 µM came out at 76 ± 29%.
With `N#Cc1ccc(N2CCc3nc4ccccc4c(Cl)c3C2)cc1` [Example 5, 4-(10-Chloro-3,4-dihydrobenzo[b][1,6]naphthyridine-2(1H)-yl)benzonitrile, hemihydrate], the inhibition at 10 µM came out at 66 ± 29%.
Take `CCOC(=O)c1ccc(N2CCc3nc4ccccc4c(Cl)c3C2)cc1` [Example 8, 4-(10-Chloro-3,4-dihydrobenzo[b][1,6]naphthyridin-2(1H)-yl)benzoic acid ethyl ester]: the inhibition at 0.1 µM turned out to be 40%, the inhibition at 1 µM stood at 43% and the inhibition at 10 µM was found to be 91%.
For the compound `N#Cc1ccc(N2CCc3nc4ccc(Cl)cc4c(Cl)c3C2)cc1` [Example 9, 4-(8,10-Dichloro-3,4-dihydrobenzo[b][1,6]naphthyridin-2(1H)-yl)benzonitrile, 1/4 hydrate], the inhibition at 1 µM turned out to be 43% and the inhibition at 10 µM was determined as 86%.
For `Cc1ccc2c(Cl)c3c(nc2c1)CCN(c1ccc(C#N)cc1)C3` [Example 10, 4-(10-Chloro-3,4-dihydro-7-methylbenzo[b][1,6]naphthyridin-2(1H)-yl)benzonitrile, 1/5 ethyl acetate], the inhibition at 10 µM amounted to 33%.
With `N#Cc1ccc(N2CCc3nc4cc(F)ccc4c(Cl)c3C2)cc1` [Example 11, 4-(10-Chloro-7-fluoro-3,4-dihydrobenzo[b][1,6]naphthyridin-2(1H)-yl)benzonitrile, 1/4 hydrate], the inhibition at 10 µM was < 20%.
With `N#Cc1ccc(N2CCc3nc4cc(Cl)ccc4c(NNc4ccccc4)c3C2)cc1` [Example 12, 4-[7-Chloro-3,4-dihydro-10-(2-phenylhydrazino)benzo[b][1,6]naphthyridin-2(1H)-yl]benzonitrile, hydrate], the inhibition at 10 µM stood at 69%.
